Laboratory results from patent US20140349970A1 (ABBVIE INC., priority 2009, published 2014).
Where a name gives a salt, the structure may show the parent alone. Read-outs that look alike come from different tables or passages of the source.

Biological target: T1, Syk catalytic domain (aa 356-635 with a C-terminal His-tag) (Homo sapiens, UniProt P43405)
T1 construct: His-tag (C); made in house
Test: In vitro Syk kinase activity measured by trFRET, Syk catalytic domain
Format: biochemical
Method in brief: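 Kinase reaction: 0.14 nM His-tagged catalytic domain, 0.2 μM biotin-TYR1 peptide, 0.001 mM ATP in 50 mM MOPSO pH 6.5 with MgCl2, MnCl2, DTT, BSA, vanadate, ~60 min at rt, then EDTA quench. Phosphoproduct detected by trFRET (Eu anti-pTyr antibody/streptavidin-APC, 665 nm emission); IC50 from signal in linear range.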

[1] = Syk catalytic domain (aa 356-635), trFRET, 0.001 mM ATP

| Structure (SMILES) | IC50 [1] | IC50 |
| --- | --- | --- |
| CN(C)CC1CCN(c2nc(-c3ccc(S(C)(=O)=O)cc3)c3cnc4[nH]ccc4n23)C1 (stereo not drawn) [N.1.64] | 1 to 10 µM |  |
| CC(C)(O)c1ccc(-c2nc(N3CCC(CN)C3)n3c2cnc2[nH]ccc23)cc1 (stereo not drawn) [N.1.66] | < 0.1 µM |  |
| CCc1c[nH]c2ncc3c(-c4ccc(OC)c(F)c4)nn(C)c3c12 [N.1.67] | 0.1 to 1 µM |  |
| CCc1c[nH]c2ncc3c(-c4ccc5nccnc5c4)nn(C)c3c12 [N.1.68] | 1 to 10 µM |  |
| CCc1c[nH]c2ncc3c(-c4ccc(OC(C)C)cc4)nn(C)c3c12 [N.1.69] | 0.1 to 1 µM |  |
| CCc1c[nH]c2ncc3c(-c4ccc(C(=O)NC5CC5)cc4)nn(C)c3c12 [N.1.70] | 0.1 to 1 µM |  |
| CCc1c[nH]c2ncc3c(-c4ccc(CO)cc4)nn(C)c3c12 [N.1.71] | 0.1 to 1 µM |  |
| CCc1c[nH]c2ncc3c(-c4ccc(S(N)(=O)=O)cc4)nn(C)c3c12 [N.1.72] | 0.1 to 1 µM |  |
| CCc1c[nH]c2ncc3c(-c4ccsc4)nn(C)c3c12 [N.1.73] | 0.1 to 1 µM |  |
| CCc1c[nH]c2ncc3c(-c4ccc(OC)cc4)nn(C)c3c12 [N.1.74] | 1 to 10 µM |  |
| CCc1c[nH]c2ncc3c(-c4cccnc4)nn(C)c3c12 [N.1.75] | 1 to 10 µM |  |
| CCc1c[nH]c2ncc3c(-c4cnn(C)c4)nn(C)c3c12 [N.1.76] | 0.1 to 1 µM |  |
| CCc1c[nH]c2ncc3c(-c4cc(OC)c(OC)c(OC)c4)nn(C)c3c12 [N.1.77] | 1 to 10 µM |  |
| CCc1c(-c2ccc(OCCOC)cc2)[nH]c2ncc3cnn(C)c3c12 [N.1.79] | 0.1 to 1 µM |  |
| CCc1c(-c2ccc(OCCN(C)C)cc2)[nH]c2ncc3cnn(C)c3c12 [N.1.80] | 1 to 10 µM |  |
| COc1ccc2c(c1)c(-c1cc3c(ncc4cnn(C)c43)[nH]1)cn2C(C)C [N.1.81] | 0.1 to 1 µM |  |
| CC(C)n1cc(-c2cc3c(ncc4cnn(C)c43)[nH]2)c2ccccc21 [N.1.82] | 0.1 to 1 µM |  |
| COc1ccc2c(c1)c(-c1cc3c(ncc4cnn(C)c43)[nH]1)nn2C [N.1.83] | 0.1 to 1 µM |  |
| CC(C)(O)c1ccc(-c2nc(C3CCOCC3)n3c2cnc2[nH]ccc23)cc1 [N.1.84] | 0.1 to 1 µM |  |
| COc1ccc(-c2nc(N3CCN(C)CC3)n3c2cnc2[nH]ccc23)cc1 [N.1.85] | 1 to 10 µM |  |
| COc1ccc(-c2nc(C3CCN(C)CC3)n3c2cnc2[nH]ccc23)cc1 [N.1.86] | 1 to 10 µM |  |
| COc1ccc(-c2nc(C3CC3)n3c2cnc2[nH]ccc23)cc1 [N.1.87] | < 0.1 µM |  |

| Structure (SMILES) | IC50 [1] | IC50 |
| --- | --- | --- |
| COCCc1nc(-c2ccc(OC)cc2)c2cnc3[nH]ccc3n12 [N.1.88] | 0.1 to 1 µM |  |
| COc1ccc(-c2nc(CN(C)C)n3c2cnc2[nH]ccc23)cc1 [N.1.89] | 1 to 10 µM |  |
| CS(=O)(=O)c1ccc(-c2ncn3c2cnc2[nH]ccc23)cc1 [N.1.90] | < 0.1 µM |  |
| COc1ccc(-c2nc(C(C)C)n3c2cnc2[nH]ccc23)cc1 [N.1.91] | 0.1 to 1 µM |  |
| CCCc1nc(-c2ccc(OC)cc2)c2cnc3[nH]ccc3n12 [N.1.92] | < 0.1 µM |  |
| COc1ccc(-c2nc(CNC3CCCCC3O)n3c2cnc2[nH]ccc23)cc1 (stereo not drawn) [N.1.93] | 1 to 10 µM |  |
| CS(=O)(=O)c1ccc(-c2nc(CC3CNCCO3)n3c2cnc2[nH]ccc23)cc1 (stereo not drawn) [N.1.94] | 0.1 to 1 µM |  |
| CN1CCN(C(=O)CCO)C[C@@H]1c1nc(-c2ccc(C(C)(C)O)cc2)c2cnc3[nH]ccc3n12 [N.1.95] | 0.1 to 1 µM |  |
| CN1CCN(Cc2nc(-c3ccc(C(C)(C)O)cc3)c3cnc4[nH]ccc4n23)CC1 [N.1.96] | 1 to 10 µM |  |
| CC(C)(O)c1ccc(-c2nc(CN3CCCNCC3)n3c2cnc2[nH]ccc23)cc1 [N.1.97] | 0.1 to 1 µM |  |
| COc1ccc(-c2ncn3c2cnc2[nH]ccc23)cc1 [N.1.98] | < 0.1 µM |  |
| Cc1nc(-c2ccc(C3(O)CCN(C(=O)OC(C)(C)C)CC3)cc2)c2cnc3[nH]ccc3n12 [N.1.99] | < 0.1 µM |  |
| Cn1cc(-c2cc3c(ncc4cnn(C)c43)[nH]2)c2cnccc21 [N.1.100] | 0.1 to 1 µM |  |
| Cn1cc(-c2cc3c(ncc4cnn(C)c43)[nH]2)c2cc(C(C)(C)O)ccc21 [N.1.101] | < 0.1 µM |  |
| Cc1nc(-c2ccc(C(C)(C)O)cc2F)c2cnc3[nH]ccc3n12 [N.1.102] | 0.1 to 1 µM |  |
| Cc1nc(-c2ccc(C(C)(C)O)cc2Cl)c2cnc3[nH]ccc3n12 [N.1.103] | 1 to 10 µM |  |
| Cc1cc(C(C)(C)O)ccc1-c1nc(C)n2c1cnc1[nH]ccc12 [N.1.104] | 1 to 10 µM |  |
| COc1ccc(-c2nc(CCN(C)C)n3c2cnc2[nH]ccc23)cc1 [N.1.105] | 1 to 10 µM |  |
| COc1ccc(-c2nnn3c2cnc2[nH]ccc23)cc1 [N.1.107] | 0.1 to 1 µM |  |
| Cc1nc(-c2ccc(C(C)(C)O)c(Cl)c2)c2cnc3[nH]ccc3n12 [N.1.108] | < 0.1 µM |  |
| CC(C)(O)c1ccc(-c2nc(-c3ccccc3CO)n3c2cnc2[nH]ccc23)cc1 [N.1.109] | < 0.1 µM |  |
| CC(C)(O)c1ccc(-c2ncn3c2cnc2[nH]cc(CO)c23)cc1 [N.1.110] | 0.1 to 1 µM |  |

| Structure (SMILES) | IC50 [1] | IC50 |
| --- | --- | --- |
| Cc1ccc2c(c1)c(-c1cc3c(ncc4cnn(C)c43)[nH]1)cn2C [N.1.111] | < 0.1 µM |  |
| Cn1cc(-c2cc3c(ncc4cnn(C)c43)[nH]2)c2cc(OCCN3CCOCC3)ccc21 [N.1.112] | < 0.1 µM |  |
| COc1ccc(-c2nc(CO)n3c2cnc2[nH]ccc23)cc1 [N.1.113] | 0.1 to 1 µM |  |
| COc1ccc(-c2nc(CNC3CC3)n3c2cnc2[nH]ccc23)cc1 [N.1.114] | 1 to 10 µM |  |
| Cc1cc(-c2cc3c(ncc4cnn(C)c43)[nH]2)ccc1N1CCN(C)CC1 [N.1.115] | < 0.1 µM |  |
| COc1ccc2c(n1)c(-c1cc3c(ncc4cnn(C)c43)[nH]1)cn2C [N.1.116] | 0.1 to 1 µM |  |
| Cn1cc(-c2cc3c(ncc4cnn(C)c43)[nH]2)c2nccnc21 [N.1.117] | 0.1 to 1 µM |  |
| Cn1ncc2cnc3[nH]c(-c4ccncc4)cc3c21 [N.2.1] | 0.1 to 1 µM |  |
| Cn1ncc2cnc3[nH]c(-c4cccnc4)cc3c21 [N.2.2] | 0.1 to 1 µM |  |
| CN(C)CCOc1ccc(-c2cc3c(ncc4cnn(C)c43)[nH]2)cc1 [N.2.3] | 0.1 to 1 µM |  |
| Cn1ncc2cnc3[nH]c(-c4ccc(OCCN5CCOCC5)cc4)cc3c21 [N.2.4] | < 0.1 µM |  |
| Cn1ncc2cnc3[nH]c(-c4ccc(OCCCN5CCOCC5)cc4)cc3c21 [N.2.5] | < 0.1 µM |  |
| Cn1ncc2cnc3[nH]c(-c4cccc5ncccc45)cc3c21 [N.2.6] | 1 to 10 µM |  |
| Cn1ncc2cnc3[nH]c(-c4ccc5ncccc5c4)cc3c21 [N.2.7] | 0.1 to 1 µM |  |
| Cn1ncc2cnc3[nH]c(-c4ccc5nccnc5c4)cc3c21 [N.2.8] | 0.1 to 1 µM |  |
| COc1ccc2c(c1)c(-c1cc3c(ncc4cnn(C)c43)[nH]1)cn2CC(=O)N1CCOCC1 [N.2.9] | < 0.1 µM |  |
| COc1ccc2c(c1)c(-c1cc3c(ncc4cnn(C)c43)[nH]1)cn2CCN1CCOCC1 [N.2.11] | < 0.1 µM |  |
| COc1ccc2c(c1)c(-c1cc3c(ncc4cnn(C)c43)[nH]1)cn2CCO [N.2.12] | < 0.1 µM |  |
| COc1ccc2c(c1)c(-c1cc3c(ncc4cnn(C)c43)[nH]1)cn2CCN(C)C [N.2.13] | 0.1 to 1 µM |  |
| COc1ccc2c(c1)c(-c1cc3c(ncc4cnn(C)c43)[nH]1)cn2CC(=O)N1CCN(C)CC1 [N.2.14] | < 0.1 µM |  |
| CC(C)(N)c1ccc(-c2nc(C3CCCCC3)n3c2cnc2[nH]ccc23)cc1 [P.3.1.1, 2-(4-(1-Cyclohexyl-6H-imidazo[1,5-a]pyrrolo[2,3-e]pyrazin-3-yl)phenyl)propan-2-amine] |  | 0.1 to 1 µM |
| COc1ccc(-c2nc([C@@H]3CC[C@H](N)C3)n3c2cnc2[nH]ccc23)cc1 [P.3.1.2] |  | 0.1 to 1 µM |

| Structure (SMILES) | IC50 [1] | IC50 |
| --- | --- | --- |
| CCc1c(-c2ccc(C(C)(C)N)cc2)[nH]c2ncc3cnn(C)c3c12 [P.3.1.3] |  | 0.1 to 1 µM |
| C1=C(c2ncn3c2cnc2[nH]ccc23)CCNC1 [P.3.1.4, 3-(1,2,3,6-Tetrahydropyridin-4-yl)-6H-imidazo[1,5-a]pyrrolo[2,3-e]pyrazine] |  | > 10 µM |
| Cc1nc(-c2ccc(C3(O)CCNCC3)cc2)c2cnc3[nH]ccc3n12 [P.3.1.5, 4-(4-(1-Methyl-6H-imidazo[1,5-a]pyrrolo[2,3-e]pyrazin-3-yl)phenyl)piperidin-4-ol hydrochloride] |  | < 0.1 µM |
| OC1(c2ccc(-c3ncn4c3cnc3[nH]ccc34)cc2)CCNCC1 [P.3.1.6] |  | < 0.1 µM |
| CC(C)(O)c1ccc(-c2nc(CN3CCNCC3)n3c2cnc2[nH]ccc23)cc1 [P.3.1.7] |  | 0.1 to 1 µM |
| CC(C)(O)c1ccc(-c2nc(CN3CCC(N)CC3)n3c2cnc2[nH]ccc23)cc1 [P.3.1.8] |  | 0.1 to 1 µM |
| CC(C)(O)c1ccc(-c2nc([C@H]3CCC[C@H](N)C3)n3c2cnc2[nH]ccc23)cc1 [P.3.1.9] |  | < 0.1 µM |
| CC(C)(O)c1ccc(-c2nc([C@@H]3CCNC3)n3c2cnc2[nH]ccc23)cc1 [P.3.1.10] |  | 0.1 to 1 µM |
| CS(=O)(=O)c1ccc(-c2nc([C@H]3CC[C@H](N)CC3)n3c2cnc2[nH]ccc23)cc1 [P.3.1.11] |  | 0.1 to 1 µM |
| COc1ccc(-c2ncn3c2cnc2[nH]cc(C4=CCNCC4)c23)cc1 [P.3.1.12] |  | 1 to 10 µM |
| CC1CN(Cc2nc(-c3ccc(C(C)(C)O)cc3)c3cnc4[nH]ccc4n23)CCN1 (stereo not drawn) [P.3.1.13] |  | 0.1 to 1 µM |
| CCc1c(-c2ccc(C(C)(C)O)cc2)[nH]c2ncc3cncn3c12 [S.1.1] |  | < 0.1 µM |
| CCc1c(-c2ccc(C(C)(C)O)cc2)[nH]c2ncc3cnc(N(C)C)n3c12 [S.1.2] |  | 0.1 to 1 µM |
| Cn1nc(-c2ccc(C(C)(C)O)cc2)c2cnc3[nH]ccc3c21 [S.1.3] |  | < 0.1 µM |
| Cc1c(-c2ccc(C(C)(C)O)cc2)[nH]c2ncc3nncn3c12 [S.1.4] |  | 0.1 to 1 µM |
| Cc1c(-c2ccc(C(C)(C)O)cc2)[nH]c2ncc3nnc(C)n3c12 [S.1.5] |  | 1 to 10 µM |
| CCc1c(-c2ccc(C(C)(C)O)cc2)[nH]c2ncc3cccn3c12 [S.1.6] |  | < 0.1 µM |
| CCc1c(-c2ccc(C(C)(C)O)cc2)[nH]c2nc(C)c3cncn3c12 [S.1.7] |  | 0.1 to 1 µM |
| CCc1c(-c2ccc(C(C)(C)O)cc2)[nH]c2ncc3cnnn3c12 [S.1.8] |  | < 0.1 µM |
| CCc1c(-c2ccc(C(C)(C)O)cc2)[nH]c2ncc3nncn3c12 [S.1.9] |  | 0.1 to 1 µM |
| Cc1cnc2cnc3[nH]c(-c4ccc(C(C)(C)O)cc4)cc3n12 [S.1.10] |  | 0.1 to 1 µM |
